From patent US20130266528A1, “SKIN LIGHTENING COMPOSITION” (priority 2010, published 2013)
Where a name gives a salt, the structure may show the parent alone.

How the values were obtained:
HaCaT keratinocyte cells [1] = experiment: Highest concentration above which the active exhibited cytotoxicity; assay type: cell-based; conditions: keratinocyte differentiation experiment of table 2
B16 melanocytes = conditions: 1 mM active, 24 hrs, average of minimum three replicates
Method: B16 melanocytes were cultured in 60 mm^2 petriplates for 2-3 days or until they reached ˜70% confluency and then actives were added and incubated for 24 hrs. Cells were harvested and protein content was estimated using Bradford method. The cells were then solubilized in 0.1N NaOH and melanin was estimated. Data are then calculated as mg melanin/mg protein and represented as % control. Decreased numbers indicate inhibition of melanin synthesis by the actives.

HaCaT keratinocyte cells [2] = experiment: Keratinocyte differentiation (acridine orange staining); assay type: cell-based; conditions: 24 hrs, average of minimum three replicates
Method: Several dicarboxylic acids were tested in an in-vitro assay viz. keratinocyte differentiation which is a well known pathway leading to skin lightening. The assay protocol is given below: 5×10^4 HaCaT keratinocyte cells/well were grown in 24 well plates for 24 hours. Cells were cultured with actives for 24 hrs. Cells were then washed with Phosphated buffer solution (PBS) and stained with 5 μg/ml acridine orange. Cells were immediately viewed using an epi-fluorescent microscope (Olympus BX 50), at 20× magnification, using appropriate excitation and barrier filters, to simultaneously view red and green fluorescence (excitation: 460 nm and emission>515 nm). The entire plate was scanned and the percentage of differentiated keratinocytes (cells with red fluorescence evenly distributed within the cytoplasm) was estimated. Data is represented as % control.

SMILES | Conc. of active = highest possible concentration above which the active exhibited cytotoxicity (HaCaT keratinocyte cells [1]) [µM] | % Keratinocyte differentiation, average (HaCaT keratinocyte cells [2]; 10 mM active) [% control] | further results
CCCC(=O)[O-].[Na+] [sodium butyrate] | 1000 |  | Melanin (mg melanin/mg protein), average (B16 melanocytes): 92 % control; % Keratinocyte differentiation, average (HaCaT keratinocyte cells [2]; 1 mM active): 174 % control
O=C([O-])C(O)C(O)C(=O)[O-].[Na+].[Na+] (stereo not shown) [sodium tartarate] | 10000 | 165 | 
O=C([O-])CCC(=O)[O-].[Na+].[Na+] [sodium succinate] | 6000 |  | % Keratinocyte differentiation, average (HaCaT keratinocyte cells [2]; 6 mM active): 155 % control
O=C(O)CCCCCCCCC(=O)O [sebacic acid] | 5000 |  | % Keratinocyte differentiation, average (HaCaT keratinocyte cells [2]; 5 mM active): 130 % control
O=C(O)CCCCCCCC(=O)O [azeleic acid] | 5500 |  | % Keratinocyte differentiation, average (HaCaT keratinocyte cells [2]; 5.5 mM active): 175 % control
O=C(O)/C=C/C(=O)O [disodium fumarate] | 10000 | 183 | 
